The values below come from ChEMBL document CHEMBL3526122, “Identification of UDP-glucuronosyltransferases responsible for the glucuronidation of darexaban, an oral factor Xa inhibitor, in human liver and intestine” (Drug Metab Dispos, 2012).

For orientation: Ki means the equilibrium dissociation constant of an inhibitor or competing ligand from its target. Broadly, the fraction unbound is free concentration divided by total concentration.

Data set [1] concerns the target T1, UDP-glucuronosyltransferase 1A10 (Homo sapiens, UniProt Q9HAW8).
T1 sequence (Q9HAW8 whole entry): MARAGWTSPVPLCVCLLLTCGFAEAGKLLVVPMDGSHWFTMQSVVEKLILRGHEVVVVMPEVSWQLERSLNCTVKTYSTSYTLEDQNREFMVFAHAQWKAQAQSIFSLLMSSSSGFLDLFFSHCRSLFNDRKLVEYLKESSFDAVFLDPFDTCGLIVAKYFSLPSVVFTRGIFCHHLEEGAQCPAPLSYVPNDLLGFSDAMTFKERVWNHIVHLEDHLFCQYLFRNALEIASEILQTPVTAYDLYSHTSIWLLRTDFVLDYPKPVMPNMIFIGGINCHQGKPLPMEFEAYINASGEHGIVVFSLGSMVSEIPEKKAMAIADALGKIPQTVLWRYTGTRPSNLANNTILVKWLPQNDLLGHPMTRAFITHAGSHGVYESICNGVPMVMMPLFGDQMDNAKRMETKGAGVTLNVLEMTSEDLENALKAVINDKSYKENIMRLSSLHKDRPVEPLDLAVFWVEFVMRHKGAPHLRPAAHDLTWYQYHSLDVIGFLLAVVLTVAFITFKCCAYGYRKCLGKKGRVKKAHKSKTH
Put plainly: Inhibition of human recombinant UGT1A10 after 10 mins in presence of UDPGA. Format: ADME.

Data set [2] concerns Liver microsome. Put plainly: Unbound intrinsic clearance in human liver microsomes assessed per mg of protein after 10 mins in presence of UDPGA and absence of fatty acid free BSA. In kind it is ADME. Background: Liver microsomes are a subcellular fraction often used to study metabolism.
Data set [3] is described as follows: Fraction unbound incubation mixture containing human recombinant UGT1A9 at 1 to 250 uM after 10 mins by ultrafiltration method in presence of 0.1% fatty acid free BSA.
The target of data set [4] is T2, UDP-glucuronosyltransferase 1A7 (Homo sapiens, UniProt Q9HAW7).
T2 sequence (Q9HAW7 whole entry): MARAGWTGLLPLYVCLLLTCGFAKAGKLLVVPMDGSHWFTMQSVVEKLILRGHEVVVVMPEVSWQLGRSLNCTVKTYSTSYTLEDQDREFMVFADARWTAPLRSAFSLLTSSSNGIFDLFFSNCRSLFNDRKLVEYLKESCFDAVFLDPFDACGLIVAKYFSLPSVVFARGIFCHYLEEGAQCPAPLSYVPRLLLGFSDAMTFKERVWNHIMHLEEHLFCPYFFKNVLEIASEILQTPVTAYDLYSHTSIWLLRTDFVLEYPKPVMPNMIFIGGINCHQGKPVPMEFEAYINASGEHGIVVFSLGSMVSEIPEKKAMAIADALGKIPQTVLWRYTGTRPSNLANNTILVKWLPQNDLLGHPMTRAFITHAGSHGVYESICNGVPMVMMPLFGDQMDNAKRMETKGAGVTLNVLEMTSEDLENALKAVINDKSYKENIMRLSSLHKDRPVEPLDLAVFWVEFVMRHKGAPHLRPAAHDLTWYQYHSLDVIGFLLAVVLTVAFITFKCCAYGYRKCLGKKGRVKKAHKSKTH
The data set is described as follows: Activity of human recombinant UGT1A7 expressed in baculovirus-infected insect cells assessed as intrinsic clearance for enzyme-mediated glucuronide formation per mg of protein at 1 to 250 uM after 10 mins by Michaelis-Menten plot analysis in presence of UDPGA. Format: ADME.

In data set [5] the target is T3, UDP-glucuronosyltransferase 2B7 (Homo sapiens, UniProt P16662).
T3 sequence (P16662 whole entry): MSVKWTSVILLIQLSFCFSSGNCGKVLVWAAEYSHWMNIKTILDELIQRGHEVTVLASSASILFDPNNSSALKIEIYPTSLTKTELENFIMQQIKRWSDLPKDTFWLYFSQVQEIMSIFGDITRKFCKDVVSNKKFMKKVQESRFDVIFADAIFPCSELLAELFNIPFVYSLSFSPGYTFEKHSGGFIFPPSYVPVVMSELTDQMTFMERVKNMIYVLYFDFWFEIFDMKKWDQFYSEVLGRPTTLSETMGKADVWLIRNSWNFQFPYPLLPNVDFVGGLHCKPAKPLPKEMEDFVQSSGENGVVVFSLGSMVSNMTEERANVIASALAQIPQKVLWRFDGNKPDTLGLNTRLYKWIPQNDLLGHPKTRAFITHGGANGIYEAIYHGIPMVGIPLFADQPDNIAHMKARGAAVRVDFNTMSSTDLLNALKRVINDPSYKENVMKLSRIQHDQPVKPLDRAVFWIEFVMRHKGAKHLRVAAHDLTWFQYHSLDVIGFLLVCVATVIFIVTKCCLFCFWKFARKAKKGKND
Put plainly: Activity of human recombinant UGT2B7 expressed in baculovirus-infected insect cells assessed as enzyme-mediated glucuronidation per mg of protein after 10 mins in presence of UDPGA. Format: ADME.

The target in data set [6] is T4, UDP-glucuronosyltransferase 1A9 (Homo sapiens, UniProt O60656).
T4 sequence (O60656 whole entry): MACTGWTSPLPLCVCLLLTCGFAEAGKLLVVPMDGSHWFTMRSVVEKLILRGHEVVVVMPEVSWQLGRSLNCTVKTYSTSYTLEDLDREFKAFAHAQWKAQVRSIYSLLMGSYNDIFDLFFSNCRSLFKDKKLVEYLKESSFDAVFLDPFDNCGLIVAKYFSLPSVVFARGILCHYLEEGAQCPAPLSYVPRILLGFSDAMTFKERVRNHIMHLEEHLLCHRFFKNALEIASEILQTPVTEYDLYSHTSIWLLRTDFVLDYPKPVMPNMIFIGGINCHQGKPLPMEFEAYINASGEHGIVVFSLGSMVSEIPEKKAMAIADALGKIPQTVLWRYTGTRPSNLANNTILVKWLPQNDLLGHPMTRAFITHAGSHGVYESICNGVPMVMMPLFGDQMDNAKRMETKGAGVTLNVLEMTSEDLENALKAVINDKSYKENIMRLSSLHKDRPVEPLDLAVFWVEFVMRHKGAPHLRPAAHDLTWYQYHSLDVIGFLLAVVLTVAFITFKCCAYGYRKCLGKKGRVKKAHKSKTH
The data set is described as follows: Activity of human recombinant UGT1A9 expressed in baculovirus-infected insect cells assessed as intrinsic clearance for enzyme-mediated glucuronide formation per mg of protein at 1 to 250 uM after 5 mins by Michaelis-Menten plot analysis in presence of UDPGA. In kind it is ADME.

Data set [7] can be described thus: Fraction unbound in incubation mixture containing human recombinant UGT1A9 at 1 to 250 uM after 10 mins by ultrafiltration method in absence of fatty acid free BSA.
For data set [8], the system named is Liver microsome. The data set is described as follows: Unbound intrinsic clearance in human liver microsomes assessed per mg of protein after 10 mins in presence of UDPGA and 2% fatty acid free BSA. In kind it is ADME.
Data set [9] can be described thus: Fraction unbound in human liver microsomes at 1 to 250 uM after 10 mins by ultrafiltration method in presence of 2% fatty acid free BSA. Format: ADME.

For `COc1ccc(C(=O)Nc2cccc(O)c2NC(=O)c2ccc(N3CCCN(C)CC3)cc2)cc1.O=C(O)CCC(=O)O`, the Ki in data set [1] was 235 µM. Further, the CL free in the data set on Liver microsome [2] amounted to 17.4 µL/min/mg; in the data set on Liver microsome [8] it was 178 µL/min/mg. Further, the Fu in [3] came to 0.755; in data set [7], 0.879. The figures for the clearance in data set [4] and in [6] were 12.3 µL/min/mg and 132 µL/min/mg, respectively. The Drug metabolism in data set [5] is under 0.01 nmol/min/mg. Further, the fraction unbound at 10 min, up to 250 µM in data set [9] was 0.251.
